Laboratory results from publication PMC7436059, “Synthesis, Characterization, Photoluminescence, Molecular Docking and Bioactivity of Zinc (II) Compounds Based on Different Substituents” (Molecules, 2020).

Assays:
BSA = biological target: T1, BSA (Bos taurus, UniProt P02769); test: BSA fluorescence quenching titration (Stern-Volmer, Scatchard); assay type: binding, bovine; conditions: 1.6 μM BSA, Tris-HCl buffer; for Ksv (Stern-Volmer quenching constant): excitation 280 nm; for n (binding site number): Scatchard equation; for Kq (quenching rate constant): τ0 = 10^−8 s
T1 construct: purchased Asbio
T1 sequence (P02769 25-607): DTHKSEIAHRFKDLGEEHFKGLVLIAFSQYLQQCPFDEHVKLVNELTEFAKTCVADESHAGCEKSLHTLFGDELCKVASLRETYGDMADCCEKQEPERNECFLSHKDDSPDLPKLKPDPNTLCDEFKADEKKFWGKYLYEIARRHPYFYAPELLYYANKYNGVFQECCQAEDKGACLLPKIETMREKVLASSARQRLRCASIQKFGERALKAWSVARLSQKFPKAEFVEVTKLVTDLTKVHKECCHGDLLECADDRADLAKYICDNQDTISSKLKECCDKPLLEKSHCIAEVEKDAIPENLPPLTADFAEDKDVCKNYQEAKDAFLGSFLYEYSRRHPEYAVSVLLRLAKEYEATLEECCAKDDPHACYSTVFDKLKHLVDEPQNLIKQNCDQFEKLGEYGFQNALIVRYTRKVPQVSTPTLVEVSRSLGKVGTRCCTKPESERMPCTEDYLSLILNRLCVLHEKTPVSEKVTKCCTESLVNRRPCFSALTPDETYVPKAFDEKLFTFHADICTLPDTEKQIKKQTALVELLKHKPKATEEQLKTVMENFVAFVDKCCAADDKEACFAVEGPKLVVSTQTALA
Source text: The structure and transmission characteristics of BSA are similar to HSA [36]. BSA was used instead of HSA for drug delivery due to its ease to purify and stability. The binding of metal complexes to proteins was studied by fluorescence spectrum titration. Endogenous fluorescence of BSA comes from residues as tryptophan (Trp), tyrosine (Tyr) and phenylalanine (Phe), and conformational changes of BSA-binding metal complexes are obtained by observing the fluorescence of Trp residues at 350 nm. […] The same phenomenon occurs for the other compounds (shown in Figure S22, Supplementary Materials). […] This appearance may be due to a resonant energy transfer. […] The Stern–Volmer equation [37] (Equation (1)) was used to study the quenching mechanism of BSA and the complexes:I0/I = 1 + Kqτ0[Q] = 1 + Ksv[Q](1) where the fluorescence intensity of the protein is expressed by I0 and I in absence and in presence of quencher, respectively; Ksv is the Stern–Volmer quenching rate constant; Kq is the quenching rate constant; and τ0 and [Q] represent the lifetime of fluorescent molecule in absence of quencher (valued 10^−8 s) and quencher concentration, respectively. The maximum causing a value of dynamic quenching in biopolymers is 2 × 10^10 M^−1 S^−1 [23].
Calculation of the binding constants (Kb) was achieved according to the Scatchard equation [38] (Equation (2)):log [(I0 − I)/I] = logKb + nlog[Q](2) where Kb and n represent the binding constant and the binding site number, respectively. The binding constants Kb and the binding site number were obtained from the intercept and slope of the double logarithm regression plot between log [(I0 − I)/I] and log [Q]. The binding constant (>104 L mol^−1) was obtained under the condition of high binding affinity. […] It can be seen in Figure 7 that the absorption spectra of the complexes partially overlap with the […] spectrum of BSA.
Bovine serum albumin (BSA) was dissolved in a Tris-HCl buffer (pH = 7.4) solution to prepare a 1.6 × 10^−6 M BSA solution. The protein concentration was measured by spectrophotometry at 280 nm with the extinction coefficient of 44,300 M^−1 cm^−1. Stock solutions of complexes 1–6 (1 × 10^−2 M) were prepared in DMSO. The emission spectrum (300–600 nm) of BSA was monitored at the excitation wavelength of 280 nm.

[1] = tested on: human esophageal cancer cell line (Eca-109); test: CCK-8 antiproliferative assay, Eca-109; assay type: cell-based; conditions: Eca-109, CCK-8, 72 h incubation
Source text: (§1) The in vitro antiproliferative properties of complexes 1–6 against Eca-109, A549 and Bel-7402 tumor lines were examined by employing the CCK-8 assay with cisplatin as a positive control. […] It is interesting that the different cells respond distinctively to these complexes. The complexes display remarkable cytotoxicity against Eca-109 in comparison to A549 and Bel-7402. […] Compared with that of zinc chloride complexes, the antiproliferative activity of these complexes is stronger. This activity of the bromide complexes follows the order of 1 > 3 > 5 and that of the iodide complexes is 2 > 4 > 6. […] It is worth mentioning that, among these compounds, the order of the activity is consistent with the electronegativity values (methylsulfonyl (−2.96) < methoxy (−2.86) < methyl (−2.28) of the substituents.
(§2) In this assay, human esophageal cancer cell line (Eca-109), human lung cancer cell line (A549), human hepatocellular carcinoma cell line (Bel-7402) and mouse monocyte macrophage (RAW264.7) were used to evaluate the antiproliferative activities or cytotoxicity in vitro by CCK-8 assay for determining cell viability with cisplatin as the positive control. All the cells are purchased from the American Type Culture Collection (Manassas, VA, USA). The cells were cultured in 100 µL complete DMEM growth media containing 10% FBS and 1% PS. First, 3000 cells were added to 96-well plates and were cultured overnight in a humidified atmosphere at 37 °C with 5% CO2. Then, complexes 1–6 and cisplatin were diluted with complete DMEM growth media to obtain the working concentration, which was added to the tissue culture plate and incubated for 72 h. The CCK-8 solution was added to each well. After 3 h incubation, the absorbance of each well at 490 nm was measured using an enzyme labeling instrument (Tecan, Grödig, Salzburg, Austrla). Cell morphology was measured and imaged by an inverted microscope (Nikon eclipses TS100, Tokyo, Japan) and a Nikon digital camera (Tokyo, Japan). The 50% inhibitive concentration (IC50) was calculated by Graph Pad Prism 5.0 (San Diego, CA, USA).

[2] = tested on: human hepatocellular carcinoma cell line (Bel-7402); test: CCK-8 antiproliferative assay, Bel-7402; assay type: cell-based; conditions: Bel-7042, CCK-8, 72 h incubation
Source text: as §1, §2

[3] = tested on: human lung cancer cell line (A549); test: CCK-8 antiproliferative assay, A549; assay type: cell-based; conditions: A549, CCK-8, 72 h incubation
Source text: as §1, §2

| Structure (SMILES) | Ksv (Stern-Volmer quenching constant) (BSA) [M⁻¹] | n (binding site number) (BSA) | Kq (quenching rate constant) (BSA) [M⁻¹ s⁻¹] | IC50 [1] [nM] | IC50 [2] [nM] | IC50 [3] [nM] |
| --- | --- | --- | --- | --- | --- | --- |
| CS(=O)(=O)c1ccc(-c2cc(-c3ccccn3)nc(-c3ccccn3)c2)cc1.[Br][Zn][Br] [Compound 1, [ZnBr2L^1]] | 176000 | 0.72 | 1.76e+13 | 79 | 358 |  |
| CS(=O)(=O)c1ccc(-c2cc(-c3ccccn3)nc(-c3ccccn3)c2)cc1.[I][Zn][I] [Compound 2, [ZnI2L^1]] | 176000 | 0.83 | 1.76e+13 | 66 | 331 | 290 |
| COc1ccc(-c2cc(-c3ccccn3)nc(-c3ccccn3)c2)cc1.[Br][Zn][Br] [Compound 3, [ZnBr2L^2]] | 115000 | 1.07 | 1.15e+13 | 169 | 414 | 482 |
| COc1ccc(-c2cc(-c3ccccn3)nc(-c3ccccn3)c2)cc1.[I][Zn][I] [Compound 4, [ZnI2L^2]] | 163000 | 1.08 | 1.63e+13 | 75 | 397 | 307 |
| Cc1ccc(-c2cc(-c3ccccn3)nc(-c3ccccn3)c2)cc1.[Br][Zn][Br] [Compound 5, [ZnBr2L^3]] | 46300 | 0.87 | 4.63e+12 | 197 | 616 | 748 |
| Cc1ccc(-c2cc(-c3ccccn3)nc(-c3ccccn3)c2)cc1.[I][Zn][I] [Compound 6, [ZnI2L^3]] | 76700 | 0.89 | 7.67e+12 | 146 |  | 945 |
| N.N.[Cl][Pt][Cl] [cisplatin, reference compound] |  |  |  | 5460 | 3090 | 12000 |
